Laboratory results taken from PMC5796017, “Enantiomeric Effect of D-Amino Acid Substitution on the Mechanism of Action of α-Helical Membrane-Active Peptides” (International Journal of Molecular Sciences, 2017).
Converted amounts (≈) assume the structure as drawn.

Key:
[1] = RP-HPLC retention time as relative hydrophobicity; type: physicochemical; conditions: 25 °C, used by the paper as measure of relative hydrophobicity
Experimental: The RP-HPLC retention time has been widely used to represent the relative hydrophobicity of peptides in many studies.The relative hydrophobicity of the peptides was determined by the RP-HPLC retention times at 25 °C. The change in hydrophobicity of the peptides caused by D-amino acid substitutions was mainly due to the disruption of the helical structure.

[2] = Circular dichroism (CD) secondary structure; type: physicochemical
Method in brief: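 Peptide secondary structure was measured by circular dichroism on a Jasco J-810 CD spectrometer at 25 °C, in benign KP buffer to mimic a hydrophilic environment and in 50% 2,2,2-trifluoroethanol (benign buffer: TFE = 1:1, vol/vol) to mimic a membrane-like hydrophobic environment. Mean residue molar ellipticity at 222 nm, [θ]222 (degree·cm^2·dmol^−1), calculated as [θ] = θ/10lCMn, gave relative helical content.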

E. coli ATCC25922 [3] = assay: Antimicrobial activity, microtiter dilution MIC; type: cell-based, Escherichia coli; conditions: G−; MH medium, 5 × 10^5 CFU/mL, 37 °C, 24 h, triplicate
Method in brief: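 Broth microdilution in Mueller–Hinton medium, inoculum 5 × 10^5 CFU/mL, serially diluted peptide, 24 h at 37 °C. MIC taken as lowest peptide concentration preventing growth; triplicate runs.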

[4] = test system: human red blood (hRBC) cells; assay: Hemolytic activity assay; type: cell-based; conditions: 2% human RBC in PBS, 37 °C, 2 h, absorbance 578 nm, triplicate
Method in brief: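 Healthy human RBCs (2% suspension in PBS) were incubated with serially diluted peptides for 2 h at 37 °C, and released hemoglobin in supernatant was read at 578 nm. Percent hemolysis was taken relative to distilled water (100%) after subtracting PBS (0%); run in triplicate.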

E. coli ATCC25922 [5] = assay: Outer membrane permeability assay (NPN uptake); type: cell-based, Escherichia coli; conditions: 16 μM peptide, 10 min, excitation 350 nm, emission 420 nm
Text: To explore the potential role of the helicity of the peptides in damaging cell membranes, we investigated the disruption of the outer membrane of Escherichia coli (E. coli) by quantifying the fluorescence intensity of 1-N-phenylnaphthylamine (NPN), which is a hydrophobic fluorescent probe. The intensity of NPN is weak in a hydrophilic environment. The fluorescence intensity of NPN gradually increases as it is exposed to a more hydrophobic environment due to damage to the bacterial outer membrane by MAPs.
The outer membrane permeability of the peptides against E. coli ATCC25922 was evaluated using the hydrophobic fluorescent probe NPN, as performed previously. In brief, E. coli was cultured in LB medium at 37 °C until the absorbance of the bacterial suspension at 600 nm was 0.4–0.6, the bacterial pellet was collected by centrifugation and resuspended in a reaction buffer (pH 7.4, 5 mM HEPES, 5 mM NaN3, 0.25 mM NPN) until the absorbance at 600 nm was 0.5. Then, an aliquot of the peptide sample and the bacterial suspension were co-incubated to give a final peptide concentration of 16 μM. The same volume of reaction buffer was used as the negative control. A Shimadzu RF-5301 PC fluorescent spectrometer (excitation wavelength of 350 nm, emission wavelength of 420 nm) was used to collect data continuously for 10 min.

CC[C@H](C)[C@H](NC(=O)[C@H](C)NC(=O)[C@H](CCCCN)NC(=O)[C@H](CC(C)C)NC(=O)[C@H](C)NC(=O)[C@@H](NC(=O)[C@H](Cc1cnc[nH]1)NC(=O)[C@H](CC(C)C)NC(=O)[C@@H](NC(=O)[C@@H](NC(=O)[C@H](CCCCN)NC(=O)[C@H](CCCCN)NC(=O)[C@H](C)NC(=O)[C@H](CO)NC(=O)[C@H](CCCCN)NC(=O)[C@H](Cc1ccccc1)NC(=O)[C@@H](NC(=O)[C@H](CCCCN)NC(=O)[C@H](CC(C)C)NC(=O)[C@H](Cc1ccccc1)NC(=O)[C@H](CO)NC(=O)[C@H](CCCCN)NC(=O)[C@H](Cc1c[nH]c2ccccc12)NC(=O)[C@H](CCCCN)NC(C)=O)[C@@H](C)O)[C@@H](C)O)C(C)C)[C@@H](C)O)C(=O)N[C@@H](CO)C(=O)N[C@@H](CO)C(N)=O [Peptide V13K]
tR (RP-HPLC retention time), relative hydrophobicity [1]: 44.48 min
[θ]222, benign ([2]; CD, KP buffer (100 mM KCl, 50 mM KH2PO4/K2HPO4, pH 7.4), 75 μM peptide, 25 °C): −5617.46 degree·cm^2·dmol^−1
[θ]222, 50% TFE ([2]; CD, KP buffer with 50% TFE, 75 μM peptide, 25 °C): −50,520.3 degree·cm^2·dmol^−1
α-Helix (%), 50% TFE (relative helicity) ([2]; KP buffer with 50% TFE, relative to molar ellipticity of V13K in 50% TFE): 100%
α-Helix (%), benign ([2]; KP buffer, relative to molar ellipticity of V13K in 50% TFE): 11.1%
MIC (E. coli ATCC25922 [3]): 8 µM (≈ 23.9 µg/mL)
MHC (minimal hemolytic concentration) [4]: 250 µM
Outer membrane permeabilization, NPN fluorescence intensity (E. coli ATCC25922 [5]): enhanced
